Values after ≈ are worked out from the molar mass of the structure shown. Values joined by “and” are separate entries in the source; they are usually repeats but may differ in a detail not shown here. Identical values can stand only once. Residues, ends and D or L forms follow the SMILES beside them. *: point of attachment. βNA = c1ccc2cc(N*)ccc2c1
Experiments:
E. coli BW25113 [1] = assay: Starvation-induced tolerance assay, wild type E. coli; type: cell-based, Escherichia coli
Description: (§1) Tolerance assay. […] Standard serial dilution and plating on LB agar was performed before and after ampicillin treatment for 4 hrs, 2 days, 4 days and 6 days to determine the fraction of the test population that survived at different time points during the course of treatment.
(§2) Standard serial dilution and plating on LB agar was performed on samples collected every 24 hrs to assess changes in the size of the sub-population that survived during the treatment process.
(§3) Upon reaching the exponential phase, bacteria were washed and re-suspended in saline (0.9% NaCl), and then incubated at 37° C. under constant shaking (250 rpm/min) for 24 hrs. […] Standard serial dilution and plating on LB agar were performed before and after ampicillin treatment for 4 hrs, 1 day, 2 days and 4 days to determine the fraction of the test population that survived at different time points during the course of treatment.

E. coli BW25113 ΔpspA = type: cell-based, Escherichia coli
Description: as §1, §2

E. coli BW25113::ΔnuoI = assay: Starvation-induced tolerance assay, ΔnuoI knockout; type: cell-based, Escherichia coli; details: 24 hrs starvation, then six days of ampicillin treatment
Description: as §1

[2] = tested on: E. coli BW25113::ΔndhΔnuoI; assay: Starvation-induced tolerance assay, ΔndhΔnuoI double knockout; type: cell-based, Escherichia coli; details: ampicillin for six days
Description: as §1

E. coli ΔtolC mutant = assay: Starvation-induced tolerance assay, ΔtolC knockout; type: cell-based, Escherichia coli; details: ampicillin for six days
Description: as §1

E. coli tolerant cells = assay: Scanning electron microscopy of tolerant cells; type: cell-based, Escherichia coli; details: for cell morphology under SEM: 24 hours
Description: Electron microscopy analysis. E. coli which had been subjected to starvation for 24 hours were treated with econazole alone, ampicillin alone and a combination of econazole and ampicillin for 24 hours, followed by examination under scanning electron microscopy (SEM). Cells treated with saline were included as negative control. Briefly, bacterial cells were fixed in 0.4% polyoxymethylene overnight and then in Osmium tetroxide (OsO4) for 2 hrs, followed by washing for three times with PBS. The cells were then dehydrated using pure ethanol, and infiltrated and embedded in Spurr resin for examination by SEM.

K. pneumoniae = assay: Starvation-induced tolerance assay, K. pneumoniae; type: cell-based, Klebsiella pneumoniae
Description: as §1, §2, §3

A. baumannii = assay: Starvation-induced tolerance assay, A. baumannii; type: cell-based, Acinetobacter baumannii
Description: as §1, §2, §3

P. aeruginosa [3] = assay: Starvation-induced tolerance assay, P. aeruginosa; type: cell-based, Pseudomonas aeruginosa
Description: as §1, §2, §3

S. aureus [4] = assay: Starvation-induced tolerance assay, S. aureus; type: cell-based, Staphylococcus aureus
Description: as §1, §2, §3

S. typhimurium = assay: Starvation-induced tolerance assay, S. typhimurium; type: cell-based
Description: as §1, §2, §3

[5] = tested on: carbapenem resistant E. coli J53 strain which expressed the carbapenemase NDM-1; assay: Starvation-induced tolerance assay, carbapenem-resistant E. coli; type: cell-based, Escherichia coli; details: econazole + sub-lethal dose of meropenem (40 μg/ml), nutrient starvation
Description: Upon reaching the exponential phase, bacteria were washed and re-suspended in saline (0.9% NaCl), and then incubated at 37° C. under constant shaking (250 rpm/min) for 24 hrs. […]

S. aureus ATCC29213 = assay: Minimal inhibitory concentration, S. aureus; type: cell-based; details: Staphylococcus aureus, 16 hours, Mueller Hinton Broth
Text: (§4) Determination of Minimal Inhibitory Concentrations (MICs).

Gram negative strains = assay: Minimal inhibitory concentration, Gram negative strains; type: cell-based; details: all Gram negative test strains
Text: as §4

E. coli = assay: Membrane potential assay DiSC3(5), E. coli; type: cell-based, Escherichia coli; details: econazole 40 μM, cells starved 24 hrs
Description: Membrane potential assay. The transmembrane electrical potential was measured by using a membrane potential-sensitive probe, DiSC3(5). Bacterial population in either the exponential phase (OD600 of 0.2) or under 24 hrs starvation (resuspended in saline) were collected by centrifugation (6000×g, 2 mins), washed twice and re-suspended in PBS (pH 7.4), and then adjusted to OD600 of 0.2. KCl and DiSC3(5) were added until final concentration of 100 mM and 1 μM was respectively reached, followed by incubation at room temperature for 25 mins in the dark to allow the dye to penetrate through the outer membrane and produce a quenching effect. […] The fluorescence reading was monitored by using a Clariostar Microplate Reader (BMG LABTECH) at an excitation wavelength of 622±10 nm and an emission wavelength of 670±10 nm for 10 mins. Upon depolarization, the dye was rapidly released into the medium, resulting in dequenching and facilitating detection fluorometrically. […] The sample preparation method is same as that prior to testing with the Microplate Reader except for the last step. Briefly, cells were washed with PBS three times before confocal observation to remove extracellular DiSC3(5) dye. […] DiSC3(5) was excited by 638 nm laser and fluorescence was detected by HyD detector at emission wavelength 675±25 nm. The images were acquired and analyzed by the Leica Application Suite X (LAS X) software. […]

S. aureus [6] = assay: Membrane potential assay DiSC3(5), S. aureus; type: cell-based, Staphylococcus aureus; details: econazole 40 μM, cells starved 24 hrs
Description: (§5) Assessment of effect of econazole on membrane potential. Fluorometric measurement of membrane potential of bacterial cells was performed using the voltage-sensitive dye DiSC3(5). The test organisms were first subjected to starvation for 24 hrs and then centrifuged and washed twice with PBS. The cell pellet was resuspended in PBS containing 100 mM of KCl to a final concentration of OD 0.2. The cells were incubated with 1 μM of DiSC3(5) for 5 min under shaking in dark. The cells were treated with econazole (40 μM); a no treatment control was included. The fluorometric measurements were carried out on black polystyrene microtiter plates using a Clariostar Microplate Reader (BMG LABTECH), with excitation wavelength at 610 nm and emission wavelength at 660 nm.

P. aeruginosa [7] = assay: Membrane potential assay DiSC3(5), P. aeruginosa; type: cell-based, Pseudomonas aeruginosa; details: econazole 40 μM, cells starved 24 hrs
Description: as §5

E. coli BW25113 [8] = assay: Mouse deep-seated thigh infection model; type: in vivo, Escherichia coli
Description: NIH mice were purchased from the Guangdong Center for Experimental Animals, Guangzhou, China. Male mice at ˜6 weeks of age with a weight of ˜20 g were used in the experiments, 6 mice per group. The animals were allowed to acclimate to the housing facility for 5 days. The mice were made neutropenic by administering 150 mg/kg cyclophosphamide 3 days and 1 day before infection. An inoculum of 1×10^6 CFU of E. coli BW25113 was injected into the right thigh of the mouse. At 24 hrs post-infection, the mice in each group received ceftazidime (20 mg/kg), econazole (20 mg/kg) or ceftazidime combining econazole treatment (i.p.) every 12 hrs for 72 hrs randomly. The mice were then euthanized and the infected thighs were aseptically excised and homogenized in PBS; the number of E. coli present in the samples was enumerated by serial dilution, spreading on LB plates, and incubation at 37° C. overnight. The population size of bacteria that survived different treatments was recorded, compared and analyzed by one-way ANOVA and post hoc Tukey test. The data were presented by using the Graph Pad Prism software. All experimental protocols followed the standard operating procedures of the Biosafety level 2 animal facilities approved by the Animal Ethics Committee of The City University of Hong Kong.

S. typhimurium PY1 = assay: Mouse peritonitis infection (tolerance sepsis) model; type: in vivo
Description: NIH male mice of about six-weeks-old with body weight of ˜20 g were used, 6 mice per group. The animals were allowed to acclimate to the housing facility for 5 days. The mice were made neutropenic by administering 150 mg/kg cyclophosphamide 3 days and 1 day before infection. Different amounts of S. typhimurium strain PY01 (2.8×10^5 CFU, 7.6×10^5 CFU or 1.5×10^6 CFU) were inoculated into the animals via intraperitoneal injection. The mice were subjected to ceftazidime (20 mg/kg), econazole (20 mg/kg) or ceftazidime combining econazole treatment (i.p.) 24 h after inoculation, at 12 hrs intervals for 72 hrs randomly. The mortality rate of the test mice was recorded every 12 hrs. After 72 h of treatment, live mice were euthanized and subjected to peritoneal washes which involved injection of 2 mL of saline into the intraperitoneal space, followed by abdominal massage. The abdomen was then cut open and 200 μL of peritoneal fluid were collected and serially diluted in saline. A 100 μL portion of each dilution was spread on LB plates, followed by incubation overnight at 37° C. Colonies were counted to determine the bacterial load in the test samples, which were expressed as CFU/ml. Statistical analysis and ethic approval were the same as described above.

E. coli J53 (mcr-1) = assay: MIC of colistin in presence and absence of compound, broth dilution; type: cell-based, Escherichia coli; details: antibiotic resistant E. coli (FIG. 20)
[9] = general statement; cited from earlier work
Escherichia coli BW25113 = assay: Effect of PAβN on bacterial growth rate; type: cell-based; details: PAβN 100 μM in LB broth
Description: Assessment of effect of PAβN on bacterial growth rate. The overnight culture of the Escherichia coli BW25113 strain was diluted 1:100 in LB Broth, followed by addition of 100 μM PAβN; a sample in which only saline was added was included as negative control. OD600 value was tested at different time points.

## CC1(C)S[C@@H]2[C@H](NC(=O)[C@H](N)c3ccccc3)C(=O)N2[C@H]1C(=O)O [ampicillin]
E. coli BW25113 [1]; wild type, 24 hrs starvation, then ampicillin 100 μg/mL (~10×MIC) for 6 days
  size of the antibiotic tolerant sub-population: 4×10^6 cells/mL and ~2.5×10^7 cells/mL
E. coli BW25113 ΔpspA; 24 hrs starvation, then ampicillin 100 μg/mL for 6 days
  size of the antibiotic tolerant sub-population: ~3×10^5 cells/mL
E. coli BW25113 ΔpspA; after 6 days of ampicillin treatment
  tolerant sub-population relative to that of wild type: 10%
E. coli BW25113::ΔnuoI
  population size: ~3.5×10^5 cell/mL
[2]
  reduction of the tolerant population: ~10^4 fold
  size of the tolerant population: ~200 cells/mL
E. coli ΔtolC mutant
  size of the tolerant population: ~5×10^4 cells/mL
E. coli tolerant cells; ampicillin 100 μg/ml and 1000 μg/ml
  cell morphology under SEM: slight shrinkage in the pole areas

## Clc1ccc(COC(Cn2ccnc2)c2ccc(Cl)cc2Cl)cc1 (stereo not drawn) [econazole]
E. coli BW25113 [1]; econazole 40 μM + ampicillin 10×MIC
  time to eradication of the entire tolerant population: 24 h
E. coli BW25113 [1]; econazole + ampicillin, E. coli
  effect of co-administration with ampicillin: pronounced bactericidal synergistic effect
E. coli BW25113 [1]; econazole + ciprofloxacin (1 μg/ml)
  treatment time at which all tolerant cells were killed: 24 h
E. coli BW25113 [1]; econazole + ciprofloxacin (1 μg/ml), 4 hrs
  size of bacterial population that survived: about 200 CFU/mL
E. coli BW25113 [1]; econazole + gentamicin (20 μg/ml)
  treatment time at which all tolerant cells were killed: 24 h
E. coli BW25113 [1]; econazole + gentamicin (20 μg/ml), 4 hrs
  size of bacterial population that survived: about 200 CFU/mL
E. coli BW25113 [1]; econazole alone, 4 hrs
  size of the population that survived: about 1.7×10^5 CFU/mL
E. coli BW25113 [1]; econazole alone, 24 hrs
  population size: ~1×10^4 CFU/mL
K. pneumoniae; econazole + ampicillin
  effect of co-administration with ampicillin: pronounced bactericidal synergistic effect
  time to eradication of the entire tolerant sub-population: ≤ 24 h
K. pneumoniae; econazole alone, 40 μM
  killing of tolerant cells: slight killing effect
A. baumannii; econazole + ampicillin
  effect of co-administration with ampicillin: pronounced bactericidal synergistic effect
  time to eradication of the entire tolerant sub-population: ≤ 24 h
A. baumannii; econazole alone, 40 μM
  killing of tolerant cells: slight killing effect
P. aeruginosa [3]; econazole + ampicillin
  effect of co-administration with ampicillin: pronounced bactericidal synergistic effect
  time to eradication of the tolerant sub-population: ≤ 96 h
P. aeruginosa [3]; econazole alone, 40 μM
  killing of tolerant cells: slight killing effect
S. aureus [4]; econazole + ampicillin
  effect of co-administration with ampicillin: pronounced bactericidal synergistic effect
S. aureus [4]; econazole alone, 40 μM
  time to eradication of tolerant cells: ≤ 96 h
S. typhimurium; econazole + ampicillin
  effect of co-administration with ampicillin: pronounced bactericidal synergistic effect
  time to eradication of the tolerant sub-population: ≤ 96 h
S. typhimurium; econazole + ceftazidime (100 μg/ml), within 96 hrs (FIG. 16F)
  size of the tolerant population: ~500 CFU/mL
S. typhimurium; econazole alone, 40 μM
  killing of tolerant cells: slight killing effect
[5]
  effect on the tolerant sub-population: eradicate the tolerant sub-population
S. aureus ATCC29213
  MIC: 40 µM (≈ 15.3 µg/mL)
Gram negative strains
  MIC: > 160 µM
E. coli
  effect on PMF (DiSC3(5) fluorescence): caused dissipation of PMF
S. aureus [6]
  effect on PMF (DiSC3(5) fluorescence): caused dissipation of PMF
P. aeruginosa [7]
  effect on PMF (DiSC3(5) fluorescence): caused dissipation of PMF
E. coli tolerant cells; econazole 40 μM + ampicillin 100 μg/ml
  cell morphology under SEM: cell membrane structure was severely damaged
E. coli tolerant cells; econazole 40 μM alone
  cell morphology under SEM: rough cell surface, as well as leakage of intracellular material
E. coli tolerant cells; econazole, exponentially growing cells (data not shown)
  membrane damage or morphological changes: not found to cause any detectable membrane damage or morphological changes
E. coli BW25113 [8]; econazole 20 mg/kg + ceftazidime 20 mg/Kg i.p. every 12 hrs for 72 hrs, P=0.031
  eradication of E. coli tolerant cells compared with ceftazidime (20 mg/Kg) alone: significantly more
E. coli BW25113 [8]; econazole alone 20 mg/kg i.p. every 12 hrs for 72 hrs, P=0.026
  eradication of E. coli tolerant cells compared with ceftazidime (20 mg/Kg) alone: significantly more
S. typhimurium PY1; ceftazidime + econazole (20 mg/kg each), inoculation of 7.6×10^5 CFU
  protection of the test animals compared with ceftazidime alone: slightly more effective
S. typhimurium PY1; ceftazidime + econazole, 7.6×10^5 CFU, after 72 h, P<0.0001
  rate of eradication of PY1 tolerant cells in surviving mice: significantly higher
S. typhimurium PY1; econazole 20 mg/kg + ceftazidime 20 mg/Kg, 1.5×10^6 CFU
  survival rate: 80%
E. coli J53 (mcr-1)
  effect of co-administration with colistin: bactericidal synergistic effect
[9]
  toxicity or safety in human: proven safe

## N=C(N)NCCC[C@H](NC(=O)[C@@H](N)Cc1ccccc1)C(=O)Nc1ccc2ccccc2c1 [PAβN] (H-Phe-Arg-βNA)
Escherichia coli BW25113
  effect on bacterial growth: did not exert any negative effect on bacterial growth

— US20240285586A1, “METHODS FOR TREATING BACTERIAL CELL POPULATIONS” (THE HONG KONG POLYTECHNIC UNIVERSITY, priority 2021, published 2024)
